Data as given in patent publication US6410600B1, “Azine used as fungicides” (Bayer Aktiengesellschaft, priority 1998, dated 2002).

Assays:
[1] = logP determination by HPLC (EEC direction 79/831 Annex V. A8); format: physicochemical; conditions: eluent not stated
Plasmopara viticola = test: Plasmopara Test (grapevine)/Protective; format: in vivo; conditions: protective, application rate 100 g/ha, evaluation 6 days after inoculation
Procedure: Plasmopara Test (grapevine)/Protective
(§1) To produce a suitable preparation of active compound, 1 part by weight of active compound is mixed with the stated amounts of solvent and emulsifier, and the concentrate is diluted with water to the desired concentration.
To test for protective activity, young plants are sprayed with the preparation of active compound at the stated application rate. After the spray coating has dried on, the plants are inoculated with an aqueous spore suspension of Plasmopara viticola and then remain in an incubation cabin at approximately 20° C. and 100% relative atmospheric humidity for 1 day. The plants are then placed in a greenhouse at approximately 21° C. and approximately 90% relative atmospheric humidity. The plants are then moistened and placed in an incubation cabin for 1 day.
Evaluation is carried out 6 days after the inoculation. 0% means an efficacy which corresponds to that of the control, whereas an efficacy of 100% means that no infection is observed.

Sphaerotheca fuliginea = test: Sphaerotheca Test (cucumber)/Protective; format: in vivo; conditions: protective, application rate 100 g/ha, evaluation 10 days after inoculation
Procedure: Sphaerotheca Test (cucumber)/Protective
as §1
To test for protective activity, young plants are sprayed with the preparation of active compound at the stated application rate. After the spray coating has dried on, the plants are inoculated with an aqueous spore suspension of Sphaerotheca fuliginea. The plants are then placed in a greenhouse at approximately 23° C. and a relative atmospheric humidity of approximately 70%.
Evaluation is carried out 10 days after the inoculation. 0% means an efficacy which corresponds to that of the control, whereas an efficacy of 100% means that no infection is observed.

Venturia inaequalis = test: Venturia Test (apple)/Protective; format: in vivo; conditions: protective, application rate 10 g/ha, evaluation 12 days after inoculation
Procedure: Venturia Test (apple)/Protective
as §1
To test for protective activity, young plants are sprayed with the preparation of active compound at the stated application rate. After the spray coating has dried on, the plants are inoculated with an aqueous conidia suspension of the causative organism of apple scab Venturia inaequalis and then remain in an incubation cabin at approximately 20° C. and 100% relative atmospheric humidity for 1 day.
The plants are then placed in a greenhouse at approximately 21° C. and a relative atmospheric humidity of approximately 90%.
Evaluation is carried out 12 days after the inoculation. 0% means an efficacy which corresponds to that of the control, whereas an efficacy of 100% means that no infection is observed.

SMILES	chromatographic logP [1]	efficacy (Plasmopara viticola)	efficacy (Sphaerotheca fuliginea)	efficacy (Venturia inaequalis)
CO/N=C(\C)C(C)=NN [3-hydrazono-butan-2-one O-methyl oxime]	0.97			
COC(=O)/C=C(/OC)c1ccccc1C=NN=C(C)c1cccc(C(F)(F)F)c1 [Example 1, methyl 3-methoxy-3-(2-{[1-(3-trifluoromethylphenyl)-ethylidene]-hydrazonomethyl}-phenyl)-acrylate]	4.4	more than 80%	more than 80%	more than 90%
